Article PMC6272684, “Synthesis, Antiproliferative and Antifungal Activities of 1,2,3-Triazole-Substituted Carnosic Acid and Carnosol Derivatives” (Molecules, 2015)
Several values for one entry are separate records, joined by “and”; a condition that tells them apart may be missing. Equal entries are not always repeated. Where two headings read alike, the source gives them in different places.

What was measured:
[1] = system: C. neoformans ATCC 32264; experiment: Antifungal broth microdilution (CLSI M27-A3), growth inhibition; format: cell-based, Cryptococcus neoformans; settings: for MIC50 (minimum concentration to inhibit 50% of fungal growth), C. neoformans: C. neoformans ATCC 32264
Method in brief: (§1)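 Yeast inocula (1–5 × 10^3 CFU/mL) were tested by CLSI M27-A3 broth microdilution in RPMI-1640 at 250–3.9 μg∙mL^−1 (DMSO ≤1%) for 48 h at 30 °C in the dark. Growth was read at OD405, and % inhibition was calculated against growth and sterility controls in triplicate. MIC100 is total inhibition; MIC50 is 50% inhibition.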

[2] = system: C. albicans ATCC 10231; experiment: as above; format: cell-based, Candida albicans; settings: for MIC50 (minimum concentration to inhibit 50% of fungal growth), C. albicans: C. albicans ATCC 10231
Method in brief: as §1

[3] = system: gastric epithelial adenocarcinoma (AGS) cells; experiment: Antiproliferative assay (MTT reduction, 3 days); format: cell-based, human; settings: >100 µM considered inactive, read-out: IC50 ± SD, AGS
Experimental: (§2) The antiproliferative activity towards the following human cell lines was determined: normal lung fibroblasts (MRC-5), gastric epithelial adenocarcinoma (AGS), lung cancer (SK-MES-1) and bladder carcinoma (J82) cells. […] When comparing the pairs 3–4, 5–6 and 7–8 differing in one CH2 unit in the linker, the activity decreased with linker length.
(§3) All human cell lines used in this work were purchased from the American Type Culture Collection (ATCC, Manasas, VA, USA). Normal lung MRC-5 fibroblasts (CCL-171), SK-MES-1 lung cancer cells (HTB-58) and J82 bladder carcinoma cells (HTB-1) were grown as monolayers in minimum essential Eagle medium (MEM) with Earles’s salts, 2 mM L-glutamine and 1.5 g∙L^−1 sodium bicarbonate. Gastric adenocarcinoma AGS cells (CRL-1739) were grown as monolayers in Ham F-12 medium containing 1 mM L-glutamine and 1.5 g∙L^−1 sodium bicarbonate. All media were supplemented with 10% heat-inactivated FBS, 100 IU∙mL^−1 penicillin and 100 µg∙mL^−1 streptomycin. Cells were grown in a humidified incubator with 5% CO2 in air at 37 °C. For the antiproliferative assay, cells were plated at a density of 5 × 10^4 cells∙mL^−1. Cells were seeded in 96-well plates (100 µL∙well^−1). One day after seeding, cells were treated with medium containing the compounds at concentrations ranging from 0 up to 100 µM during 3 days. The compounds were dissolved in DMSO (1% final concentration) and complete medium. Untreated cells (medium containing 1% DMSO) were used as 100% viability controls. […] Each concentration was tested in sextuplicate and experiments were repeated 2 times. Cell viability was determined by means of the MTT reduction assay at the end of the incubation with the products. The results were transformed to percentage of controls and the IC50 value was obtained adjusting the dose-response curve to a sigmoidal model. The software used was OriginPro 8.1 [30].

[4] = system: bladder carcinoma (J82) cells; experiment: Antiproliferative assay (MTT reduction, 3 days); format: cell-based, human; settings: Homo sapiens, J82, 72 h, read-out: IC50 ± SD, J82
Experimental: as §2, §3

Compound	Inhibition percentage against C. neoformans ATCC 32264 ([1]; 3.9 μg∙mL^−1, 48 h)	Inhibition percentage against C. neoformans ATCC 32264 ([1]; 7.8 μg∙mL^−1, 48 h)	Inhibition percentage against C. neoformans ATCC 32264 ([1]; 15.6 μg∙mL^−1, 48 h)	Inhibition percentage against C. neoformans ATCC 32264 ([1]; 31.2 μg∙mL^−1, 48 h)	Inhibition percentage against C. neoformans ATCC 32264 ([1]; 62.5 μg∙mL^−1, 48 h)	Inhibition percentage against C. neoformans ATCC 32264 ([1]; 125 μg∙mL^−1, 48 h)	MIC50 (minimum concentration to inhibit 50% of fungal growth), C. neoformans [1]	Inhibition percentage against C. albicans ATCC 10231 ([2]; 3.9 μg∙mL^−1, 48 h)	Inhibition percentage against C. albicans ATCC 10231 ([2]; 7.8 μg∙mL^−1, 48 h)	Inhibition percentage against C. albicans ATCC 10231 ([2]; 15.6 μg∙mL^−1, 48 h)	Inhibition percentage against C. albicans ATCC 10231 ([2]; 62.5 μg∙mL^−1, 48 h)	Inhibition percentage against C. albicans ATCC 10231 ([2]; 125 μg∙mL^−1, 48 h)	Inhibition percentage against C. albicans ATCC 10231 ([2]; 250 μg∙mL^−1, 48 h)	Inhibition percentage against C. albicans ATCC 10231 ([2]; 31. μg∙mL^−1, 48 h)	MIC50 (minimum concentration to inhibit 50% of fungal growth), C. albicans [2]	IC50 [3]	Inhibition percentage against C. neoformans ATCC 32264 ([1]; 250 μg∙mL^−1, 48 h)	Antifungal activity against C. albicans (in words) ([2]; at the assayed concentrations (250–3.9 μg∙mL^−1))	IC50 [4]	IC50 ([3]; Homo sapiens, 72 h)
CC(C)c1cc2c(c(OC(=O)CCc3cn(Cc4ccc([N+](=O)[O-])cc4)nn3)c1OC(=O)CCc1cn(Cc3ccc([N+](=O)[O-])cc3)nn1)C13CCCC(C)(C)C1CC2OC3=O (stereo not drawn) [Compound 23, (7β)-11,12-O-(3-(1-(4-nitrobenzyl)-1H-1,2,3-triazol-4-yl)-propanoyloxy)-7,20-epoxyabieta-8,11,13-trien-20-one]	6.0 ± 0.1%	11.5 ± 1.5%	16.2 ± 0.2%	18.1 ± 0.4%	32.6 ± 0.8%	37.7 ± 0.7%	250 µg/mL	0.0%	1.6 ± 0.8%	3.3 ± 0.6%	6.7 ± 1.6%	17.6 ± 1.4%	25.5 ± 2.5%	6.0 ± 0.5%	>250 µg/mL	99.4 µM				
COC(=O)C12CCCC(C)(C)C1CCc1cc(C(C)C)c(OC(=O)CCc3cn(Cc4ccccc4)nn3)c(OC(=O)CCc3cn(Cc4ccccc4)nn3)c12 (stereo not drawn) [Compound 11, Methyl(11,12-O-(3-(1-benzyl-1H-1,2,3-triazol-4-yl)-propanoyloxy)-abieta-8,11,13-triene)-20-oate]	0.0%	2.7 ± 0.9%	13.3 ± 2.0%	14.2 ± 1.3%	19.4 ± 2.1%	38.3 ± 2.9%	250 µg/mL	1.8 ± 0.1%	1.9 ± 0.5%	3.5 ± 0.7%	11.8 ± 0.3%	23.3 ± 2.1%	45.7 ± 3.0%	5.5 ± 1.7%	>250 µg/mL	89.4 µM	57.2 ± 2.4%	weak effect		
COc1cc([C@@H]2c3cc4c(cc3[C@@H](O[C@@H]3O[C@@H]5CO[C@@H](C)O[C@H]5[C@H](O)[C@H]3O)[C@H]3COC(=O)[C@H]23)OCO4)cc(OC)c1O [Etoposide, reference compound]																			3.49 ± 0.16 µM	0.58 ± 0.02 µM
CC(C)c1cc2c(c(OC(=O)CCCc3cn(Cc4ccc([N+](=O)[O-])cc4)nn3)c1OC(=O)CCCc1cn(Cc3ccc([N+](=O)[O-])cc3)nn1)C13CCCC(C)(C)C1CC2OC3=O (stereo not drawn) [Compound 24, (7β)-11,12-O-(4-(1-(4-nitrobenzyl)-1H-1,2,3-triazol-4-yl)-butanoyloxy)-7,20-epoxyabieta-8,11,13-trien-20-one]	4.9 ± 1.4%	15.4 ± 0.1%	21.0 ± 0.1%	24.3 ± 0.5%	27.3 ± 0.7%	31.7 ± 1.6%	>250 µg/mL	0.0%	0.0%	0.0%	4.8 ± 0.6%	14.3 ± 2.0%	29.8 ± 1.9%	3.4 ± 0.5%	>250 µg/mL		45.8 ± 2.0%			
COC(=O)C12CCCC(C)(C)C1CCc1cc(C(C)C)c(OC(=O)CCc3cn(CSc4ccccc4)nn3)c(OC(=O)CCc3cn(CSc4ccccc4)nn3)c12 (stereo not drawn) [Compound 9, Methyl(11,12-O-(3-(((1-phenylthio)methyl)-1H-1,2,3-triazol-4-yl)-propanoyloxy)-abieta-8,11,13-triene)-20-oate]	0.0%	5.1 ± 0.7%	7.3 ± 0.4%	13.7 ± 1.5%	23.4 ± 1.3%	53.6 ± 2.6%	125 µg/mL	0.0%	0.0%	3.5 ± 0.3%	9.4 ± 0.7%	19.2 ± 0.1%	15.9 ± 1.2%	4.7 ± 0.1%	>250 µg/mL		62.4 ± 3.8%			
COC(=O)C12CCCC(C)(C)C1CCc1cc(C(C)C)c(OC(=O)CCCc3cn(Cc4ccc(Br)cc4)nn3)c(OC(=O)CCCc3cn(Cc4ccc(Br)cc4)nn3)c12 (stereo not drawn) [Compound 14, Methyl(11,12-O-(4-(1-(4-bromobenzyl)-1H-1,2,3-triazol-4-yl)-butanoyloxy)-abieta-8,11,13-triene)-20-oate]	0.0%	4.5 ± 0.2%	10.1 ± 1.0%	12.0 ± 1.2%	16.9 ± 1.1%	30.1 ± 1.4%	250 µg/mL	1.3 ± 0.2%	1.3 ± 0.3%	1.9 ± 0.3%	9.3 ± 1.5%	13.3 ± 0.6%	29.1 ± 2.5%	6.3 ± 1.5%	>250 µg/mL		57.2%–67.4% and 67.4 ± 1.7%			
